{"source": "patent US5830910A", "about": "(priority 1995, dated 1998)", "key": {"[1]": {"test_system": "cultured hippocampal neurons", "assay": "neurotoxicity of combined exposure to Aβ and glutamate", "format": "cell-based, rat", "conditions": "100 nM; 50 μM Aβ plus 20 μM glutamate, 48 h", "from_the_text": "Dissociated embryonic rat hippocampal cell cultures were established and maintained. All procedures conformed with the NIH Guide for the Care and Use of Laboratory Animals and were approved by the University of Kentucky Animal Care and Use Committee. Cultures were maintained on a polyethyleneimine-coated substrate in plastic 35-mm dishes or 96 wall plates (for cell survival studies) or glass-bottom 35-mm dishes (for [Ca^2+ ]i imaging studies). The cell density was ^~ 70-100 cells/mm^2. Cells were maintained in Eagle's minimum essential medium supplemented 10% with fetal bovine serum and containing 20 mM sodium pyruvate. […]\n(§1) Neuronal survival was quantified by counting viable neurons in the same microscope fields (10x objective) immediately before experimental treatment and at time points after treatment. In addition, cells were grown in 96-well plates and Alamar blue fluorescence (Alamar Laboratories)was quantified by using a fluorescence plate reader. […] Viability of the remaining neurons was assessed by morphological criteria. […] Survival values were expressed as percentages of the initial number of neurons present before experimental treatment. […]\nFIG. 13. […] Neuronal survival was assessed 48 h after treatment. […]"}, "[2]": {"test_system": "hippocampal region CA3 neurons", "assay": "kainate lesion paradigm, CA3 neurons", "format": "in vivo, rat (Sprague-Dawley)", "conditions": "for neurons damaged by kainate: intraventricular", "method": "A kainate lesion paradigm was employed in adult rats to determine whether cytochalasin D was also excitoprotective. Twenty-four adult male Sprague-Dawley rats (250-300 g) were divided into the indicated experimental groups (4-5 rats/group). Kainate (0.5 µg/[…]) was injected stereotaxically into region CA1 of the right hippocampus of anesthetized rats. Cytochalasin D (the indicated concentration in 1 μl of saline-1% DMSO) or vehicle was infused into the right lateral ventricle during a 5-10 min period immediately following kainate injection. Rats were killed 48 hr later and perfused transcardially with 4% paraformaldehyde. Brain sections (30 μm) were stained with cresyl violet and stained neurons in three adjacent 40X microscope fields of hippocampal region CA3 were counted (5 sections/rat) . The neuronal counts were performed in sections removed approximately 200-400 μm from the injection site. This method results in highly reproducible, 75-99%, neuronal loss in the CA3 region in over 99% of the rats injected with kainate (calculations based on 302 rats receiving intra-hippocampal kainate). […] Approximately 80% of the neurons were killed by kainate in control animals receiving an intracerebroventricular infusion of saline immediately following kainate administration.\nCresyl violet-stained coronal sections from brains of rats administered kainate alone (left) of kainate plus cytochalasin D (CyD; right). […] Lower micrographs are high magnification of a region of CA3 from the sections shown in the upper panels.\nFIG. 3. Counts of viable neurons were made in region CA3 of Sham-operated rats, and rats infused intraventricularly with vehicle or increasing concentration of cytochalasin D […] unilateral kainate injection into region CA1 of the hippocampus. Neuronal survival in the kainate injected hippocampus is expressed as a percentage of neurons in the contralateral hippocampus. Values represent the mean and SEM (4 or 5 rats/group). *p<0.01 compared to value for sham rats. **p<0.01 compared to value for vehicle-infused rats. (ANOVA with Scheffe's post-hoc test)."}, "[3]": {"test_system": "cultured hippocampal neurons", "assay": "calcium ionophore A23187 neurotoxicity", "format": "cell-based, rat", "conditions": "100 nM, 1 h pretreatment", "from_the_text": "Dissociated embryonic rat hippocampal cell cultures were established and maintained. All procedures conformed with the NIH Guide for the Care and Use of Laboratory Animals and were approved by the University of Kentucky Animal Care and Use Committee. Cultures were maintained on a polyethyleneimine-coated substrate in plastic 35-mm dishes or 96 wall plates (for cell survival studies) or glass-bottom 35-mm dishes (for [Ca^2+ ]i imaging studies). The cell density was ^~ 70-100 cells/mm^2. Cells were maintained in Eagle's minimum essential medium supplemented 10% with fetal bovine serum and containing 20 mM sodium pyruvate. […] Aβ25-35 (Bachem, lot ZJ744) and Aβ1-40 (Bachem, lot ZK600) were stored in the lyophilized form, and stocks were prepared immediately before use by dissolving the peptide at a concentration of 1 mM in sterile distilled water. […] Glutamate and colchicine (Sigma) were prepared as 200-500x stocks in saline. Cytochalasins D and E (Sigma) and calcium ionophore 4-bromo-A23187 (Calbiochem) were prepared as 500x stocks in dimethyl sulfoxide. Vitamin E (α-tocopherol; Sigma) was prepared as a 500x stock in ethanol. Nordihydroguaiaretic acid and FeSo4 were prepared as 500x stocks in sterile water.\nas §1, with “reader. Alamar Blue is a non-fluorescent substrate that, after reduction by cell metabolites, becomes fluorescent.” for “reader.”\nFIG. 7. Cultures were pretreated for 1 h with 0.2% dimethylsulfoxide (control) or 100 nM cytochalasin D. Calcium ionophore A23187 was then added at the indicated concentrations and neuronal survival was assessed 8 h later. […]"}, "[4]": {"test_system": "actin filaments in cultured hippocampal neurons", "assay": "phalloidin fluorescence of actin filaments, neurons", "format": "cell-based, rat", "method": "(§2) Hippocampal cells were exposed to cytochalasin D and then fixed for 30 min in 4% paraformaldehyde/phosphate-buffered saline. Cell membranes were permeabilized by incubating for 5 min in a solution of 0.2% Triton X-100 in phosphate-buffered saline. Cells were then incubated for 30 min in PBS containing 0.005 U/ml fluorescein-phalloidin (Molecular Probes). Cells were rinsed in water and mounted in Vectashield antifade solution (Vector Laboratories) . Fluorescence images were acquired using a Sarastro 2000 confocal laser scanning microscope with a 60x oil-immersion objective. All images were acquired using identical settings for excitation intensity and detector gain.\n(§3) FIG. 4. (A) Micrographs are confocal laser scanning microscope images of cultured hippocampal cells stained with fluorescein-labeled phalloidin. Cells were exposed for 3 h to either vehicle (control; left) or 100 nM cytochalasin D (right) prior to staining with phalloidin. The top micrographs show several neurons (arrowheads point to neuronal cell bodies); note reduction in phalloidin fluorescence in cytochalasin-treatedneurons.\n(B) Cytochalasin D and glutamate cause a reduction in neuronal phalloidin fluorescence. […] Values represent the mean fluorescence intensity per neuronal cell body (±SEM; n=15-18). […]"}, "[5]": {"test_system": "actin stress fibers in astrocytes", "assay": "phalloidin staining of actin stress fibers, astrocytes", "format": "cell-based, rat", "conditions": "10-1000 nM (FIG. 4A: 100 nM), 3 h", "method": "as §2, §3"}}, "note": "“Also recorded” adds a separate entry of the source."}
{"smiles": "C=C1[C@@H](C)[C@H]2[C@H](Cc3ccccc3)NC(=O)[C@]23[C@H](OC(C)=O)/C=C/[C@@](C)(O)C(=O)[C@@H](C)C/C=C/[C@H]3[C@@H]1O", "note": "[Cytochalasin D, cytochalasin D]", "values": [{"measurement": "effect on neurotoxicity of combined Aβ and glutamate", "setting": "[1]", "value": "attenuated significantly"}, {"measurement": "neurons damaged by kainate", "setting": "[2]; 0.1 μg", "value": 20, "unit": "%"}, {"measurement": "neurons damaged by kainate", "setting": "[2]; 1.00 μg", "value": 20, "unit": "%"}, {"measurement": "reduction in neuronal injury to CA3 neurons after kainate", "setting": "[2]; intraventricular infusion, dose related, 48 hr", "value": "highly significant reduction in neuronal injury to CA3 neurons; also recorded: marked reduction in the damage"}, {"measurement": "protection against A23187 neurotoxicity", "setting": "[3]", "value": "essentially identical to that in control cultures"}, {"measurement": "phalloidin staining in neurons", "setting": "[4]; 100 nM, 1 h", "value": "pronounced reduction in phalloidin staining in neurons; also recorded: loss of fluorescence"}, {"measurement": "phalloidin staining in neurons", "setting": "[4]; 10-1000 nM, 3 h", "value": "concentration-dependent reduction in phalloidin staining in neurons"}, {"measurement": "actin stress fibers in astrocytes", "setting": "[5]", "value": "loss of actin stress fibers in astrocytes; also recorded: loss of stress fibers and cell rounding"}]}
